Measured values published in US20120165331A1, “Di/tri-aza-spiro-C9-C11alkanes” (priority 2010, published 2012).

Key:
[1] = molecular target: T1, human orexin 2 receptor (Homo sapiens, UniProt O43614); test: Radioligand binding assay ([125I]orexin A competition), human orexin 2 receptor; settings: radioligand [125I]orexin A instead of [3H]-SB649868; read-out: Binding hOx2R Kd
T1 construct: expressed in transfected cells
T1 sequence (O43614 1-444): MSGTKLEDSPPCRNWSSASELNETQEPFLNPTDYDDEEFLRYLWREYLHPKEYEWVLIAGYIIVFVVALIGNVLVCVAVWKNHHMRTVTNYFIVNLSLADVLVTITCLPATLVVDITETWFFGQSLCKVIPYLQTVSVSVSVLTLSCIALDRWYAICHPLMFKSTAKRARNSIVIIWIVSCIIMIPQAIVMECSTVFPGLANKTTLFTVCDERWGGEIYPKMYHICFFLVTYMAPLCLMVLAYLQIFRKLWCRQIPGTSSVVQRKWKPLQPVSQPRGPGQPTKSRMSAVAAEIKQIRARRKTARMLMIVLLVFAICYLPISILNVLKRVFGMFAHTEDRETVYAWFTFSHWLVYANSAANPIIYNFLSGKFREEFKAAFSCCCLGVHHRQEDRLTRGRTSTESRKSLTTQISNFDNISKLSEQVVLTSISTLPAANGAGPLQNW

[2] = molecular target: T2, human orexin 1 receptor (Homo sapiens, UniProt O43613); test: Radioligand binding assay ([125I]orexin A competition), human orexin 1 receptor; settings: radioligand [125I]orexin A instead of [3H]-SB649868; read-out: Binding hOx1R Kd
T2 construct: expressed in transfected cells
T2 sequence (O43613 1-425): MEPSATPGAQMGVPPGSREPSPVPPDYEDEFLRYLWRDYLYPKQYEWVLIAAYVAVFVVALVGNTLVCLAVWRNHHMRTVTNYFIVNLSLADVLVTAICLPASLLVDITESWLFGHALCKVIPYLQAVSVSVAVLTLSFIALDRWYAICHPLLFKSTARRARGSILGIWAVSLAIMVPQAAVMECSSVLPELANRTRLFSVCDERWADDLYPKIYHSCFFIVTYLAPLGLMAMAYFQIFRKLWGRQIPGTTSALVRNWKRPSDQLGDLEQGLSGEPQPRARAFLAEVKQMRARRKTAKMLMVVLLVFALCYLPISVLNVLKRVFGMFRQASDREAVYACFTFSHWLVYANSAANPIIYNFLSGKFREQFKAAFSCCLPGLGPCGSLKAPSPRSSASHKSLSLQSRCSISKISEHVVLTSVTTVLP

[3] = molecular target: T1, human orexin 2 receptor; test: Calcium accumulation in cells (FLIPR), antagonism of orexin A, human orexin 2 receptor; format: cell-based; settings: calcium accumulation, antagonism of orexin A, Cheng-Prusoff corrected; read-out: FLIPR hOx2R Ki
[4] = molecular target: T2, human orexin 1 receptor; test: Calcium accumulation in cells (FLIPR), antagonism of orexin A, human orexin 1 receptor; format: cell-based; settings: for Ki: calcium accumulation, antagonism of orexin A, Cheng-Prusoff corrected, read-out: FLIPR hOx1R Ki; for inhibition at 10 µM: measured at a concentration of 10 μM of compound, read-out: FLIPR hOx1R % inhibition
[5] = molecular target: T2, human orexin 1 receptor; test: Radioligand binding assay ([3H]-SB649868 competition), human orexin 1 receptor; settings: radioligand [3H]-SB649868; read-out: Binding hOx1R Kd
Summary of the method: (§1)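 Competition binding against roughly 1 nM [3H]-SB649868, run in triplicate for 1 h at room temperature on CHO or HEK membranes bearing human receptor (10 mM HEPES pH 7.5, 0.5% BSA, 5 mM MgCl2, 1 mM CaCl2, 0.05% tween). Bound radioactivity after vacuum filtration; almorexant 10 μM for non-specific binding; expressed as Kd.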

[6] = molecular target: T1, human orexin 2 receptor; test: Radioligand binding assay ([3H]-SB649868 competition), human orexin 2 receptor; settings: radioligand [3H]-SB649868; read-out: Binding hOx2R Kd
Summary of the method: as §1

Structure (SMILES)	Kd [1]	Kd [2]	Ki [3]	Ki [4]	Kd [5]	Kd [6]	inhibition at 10 µM [4]
O=C1N(Cc2cccc3ccccc23)CCC12CCN(c1nc3ccccc3[nH]1)CC2 [Example 3.7, 8-(1H-Benzo[d]imidazol-2-yl)-2-(naphthalen-1-ylmethyl)-2,8-diazaspiro[4.5]decan-1-one]	1920 nM	> 10000 nM					
O=C1N(Cc2cccc3ccccc23)CCC12CCN(c1cnc3ccccc3n1)CC2 [Example 3.11, 2-(Naphthalen-1-ylmethyl)-8-(quinoxalin-2-yl)-2,8-diazaspiro[4.5]decan-1-one]	414 nM	6360 nM	195 nM	1070 nM			
CN(C)c1cc(C(F)(F)F)nc(N2CCC3(CCN(Cc4c[nH]c5ccccc45)C3=O)C2)n1 (stereo not shown) [Example 5.47, 2-((1H-indol-3-yl)methyl)-7-(4-(dimethylamino)-6-(trifluoromethyl)pyrimidin-2-yl)-2,7-diazaspiro[4.4]nonan-1-one]			97 nM	193 nM	1030 nM	518 nM	
COc1cc(C)nc(N2CCC3(CCCN(Cc4c[nH]c5ccccc45)C3=O)C2)n1 (stereo not shown) [Example 7.1, 7-((1H-Indol-3-yl)methyl)-2-(4-methoxy-6-methylpyrimidin-2-yl)-2,7-diazaspiro[4.5]decan-6-one]			10 nM	31 nM	14 nM	13 nM	
COc1ccnc(N2CCC3(CCCN(Cc4c[nH]c5ccccc45)C3=O)C2)n1 (stereo not shown) [Example 7.4, 7-((1H-Indol-3-yl)methyl)-2-(4-methoxypyrimidin-2-yl)-2,7-diazaspiro[4.5]decan-6-one]			59 nM	317 nM	201 nM	152 nM	
COc1cccc(-c2n[nH]nc2CN2CCCC3(CCN(c4nccc(OC)n4)C3)C2=O)c1 (stereo not shown) [Example 7.6, 7-((5-(3-Methoxyphenyl)-2H-1,2,3-triazol-4-yl)methyl)-2-(4-methoxypyrimidin-2-yl)-2,7-diazaspiro[4.5]decan-6-one]			65 nM	189 nM	187 nM	170 nM	
Cc1ccnc(N2CCC3(CCCN(Cc4c[nH]c5ccccc45)C3=O)C2)n1 (stereo not shown) [Example 7.11, 7-((1H-indol-3-yl)methyl)-2-(4-methylpyrimidin-2-yl)-2,7-diazaspiro[4.5]decan-6-one]			38 nM	304 nM	89 nM	73 nM	
COc1cc(C)nc(N2CCC3(CCCN(Cc4n[nH]c5ccccc45)C3=O)C2)n1 (stereo not shown) [Example 7.12, 7-((1H-indazol-3-yl)methyl)-2-(4-methoxy-6-methylpyrimidin-2-yl)-2,7-diazaspiro[4.5]decan-6-one]			48 nM	309 nM	173 nM	138 nM	
COc1cc(C)nc(N2CCC3(CCCN(Cc4ccccc4-c4nc(C)no4)C3=O)C2)n1 (stereo not shown) [Example 7.14, 2-(4-methoxy-6-methylpyrimidin-2-yl)-7-(2-(3-methyl-1,2,4-oxadiazol-5-yl)benzyl)-2,7-diazaspiro[4.5]decan-6-one]			92 nM	174 nM	171 nM	210 nM	
O=C1N(Cc2c[nH]c3ccccc23)CCCC12CCN(c1nc3ccccc3[nH]1)C2 (stereo not shown) [Example 7.15, 7-((1H-indol-3-yl)methyl)-2-(1H-benzo[d]imidazol-2-yl)-2,7-diazaspiro[4.5]decan-6-one]			68 nM	474 nM	43 nM	28 nM	
O=C1CCC2(CCN(c3cnc4ccccc4n3)CC2)N1Cc1cccc2[nH]ccc12 [Example 8.1]			2.1 nM	78 nM	148 nM	32 nM	
Cc1cc(C)nc(N2CCC3(CCC(=O)N3Cc3cccc4[nH]ccc34)CC2)n1 [Example 8.3, 1-((1H-Indol-4-yl)methyl)-8-(4,6-dimethylpyrimidin-2-yl)-1,8-diazaspiro[4.5]decan-2-one]			2.3 nM	1210 nM	2380 nM	30 nM	
N#Cc1ccnc(N2CCC3(CCC(=O)N3Cc3cccc4[nH]ccc34)CC2)c1 [Example 8.4, 2-(1-((1H-Indol-4-yl)methyl)-2-oxo-1,8-diazaspiro[4.5]decan-8-yl)isonicotinonitrile]			45 nM		> 10000 nM	348 nM	36%
Cc1ccc(C)c(CN2C(=O)CCC23CCN(c2cnc4ccccc4n2)CC3)c1 [Example 8.5, 1-(2,5-Dimethylbenzyl)-8-(quinoxalin-2-yl)-1,8-diazaspiro[4.5]decan-2-one]			7.6 nM	100 nM	81 nM	77 nM	
Cc1ccc(C)c(CN2C(=O)CCC23CCN(c2nc(C)cc(C)n2)CC3)c1 [Example 8.6, 1-(2,5-Dimethylbenzyl)-8-(4,6-dimethylpyrimidin-2-yl)-1,8-diazaspiro[4.5]decan-2-one]			10 nM	2780 nM	4920 nM	153 nM	
Cc1ccc(C)c(CN2C(=O)COCC23CCN(c2cnc4ccccc4n2)CC3)c1 [Example 8.7, 1-(2,5-Dimethylbenzyl)-9-(quinoxalin-2-yl)-4-oxa-1,9-diazaspiro[5.5]undecan-2-one]			24 nM	274 nM	431 nM	102 nM	
O=C1COCC2(CCN(c3cnc4ccccc4n3)CC2)N1Cc1cccc2[nH]ccc12 [Example 8.9, 1-((1H-Indol-4-yl)methyl)-9-(quinoxalin-2-yl)-4-oxa-1,9-diazaspiro[5.5]undecan-2-one]			29 nM	320 nM	429 nM	136 nM	
O=C1COCC2(CCN(c3cnc4ccccc4n3)CC2)N1Cc1cccc(-c2ccccn2)c1 [Example 8.11, 1-(3-(Pyridin-2-yl)benzyl)-9-(quinoxalin-2-yl)-4-oxa-1,9-diazaspiro[5.5]undecan-2-one]			783 nM	53 nM	53 nM	4540 nM	
Cc1ccc(C)c(CN2C(=O)COCC23CCN(c2nc(C)cc(C)n2)CC3)c1 [Example 8.15, 1-(2,5-Dimethylbenzyl)-9-(4,6-dimethylpyrimidin-2-yl)-4-oxa-1,9-diazaspiro[5.5]undecan-2-one]			28 nM		> 10000 nM	165 nM	15%
Cc1ccc(C)c(CN2C(=O)OCC23CCN(c2cnc4ccccc4n2)CC3)c1 [Example 8.20, 1-(2,5-Dimethylbenzyl)-8-(quinoxalin-2-yl)-3-oxa-1,8-diazaspiro[4.5]decan-2-one]			14 nM	141 nM	171 nM	152 nM	
O=C1OCC2(CCN(c3cnc4ccccc4n3)CC2)N1Cc1cccc2[nH]ccc12 [Example 8.22, 1-((1H-Indol-4-yl)methyl)-8-(quinoxalin-2-yl)-3-oxa-1,8-diazaspiro[4.5]decan-2-one]			38 nM	645 nM	986 nM	290 nM	
